The first assay has as its system MDA-231 cancer cells. Description: Inhibition of proliferation assay: cell confluence (IncuCyte imaging). It counts as cell-based. The conditions noted are these: compound at 10 uM; MDA-231 cells; IncuCyte images every 3 h over 4-5 d; relative confluence normalised to time zero. The source says: Inhibition of Proliferation Assay
The confluence value is a surrogate for cell proliferation and growth. The value is expressed as a percent confluence, which represents the fraction of culture dish-surface that is occupied by cells. As the number of cells in the dish increases over time due to proliferation, so will their coverage of that surface increase. Expansion of the cell population on the cell culture-dish surface and confluence have mostly a linear relationship until the cells on the plate surface begin to reach saturation or maximum density.
Confluence is determined based on image analysis. Image based software can identify objects in the image field base on changes to pixel density in a grey scale image. The software can then assign a mask to those pixels within the object. Objects can be ‘gated’ out based on size and shape. To determine cell confluence, images of cells are first masked as objects. The surface area of the image that is masked is measured and compared to the total surface area of the culture dish surface to obtain a percent confluence.
MDA-231 cancer cells were obtained from ATCC. Cells were cultured in Dulbecco's Modified Eagle Medium (DMEM) supplemented with 10% Fetal Bovine Serum (FBS), 2 mM Glutamax, 1 mM Non Essential Amino Acid (NEAA) solution and 1 mM sodium pyruvate. […] Final DMSO concentrations were […]. Images were acquired with an IncuCyte Live Cell Imaging microscopy (Essen Bioscience) at every 3 h under cell culture conditions with 10× objective over 4-5 d. Cell confluence was calculated from one field of view per well using the IncuCyte in-built algorithm. Relative confluence values were obtained by normalising each value to the time zero value in each sample.
Regarding `CC[C@H]1OC(=O)[C@H](C)[C@@H](O[C@H]2C[C@@](C)(OC)[C@@H](O)[C@H](C)O2)[C@H](C)[C@@H](O[C@@H]2O[C@H](C)C[C@H](N(C)C)[C@H]2O)[C@](C)(O)C[C@@H](C)CN(C)[C@H](C)[C@@H](O)[C@]1(C)O` [Azithromycin], the “% Confluence” value is reported as 99.1%.
Same read-out and setting: under `CC[C@H]1OC(=O)[C@H](C)[C@@H](O[C@H]2C[C@@](C)(OC)[C@@H](O)[C@H](C)O2)[C@H](C)[C@@H](O[C@@H]2O[C@H](C)C[C@H](N(C)C)[C@H]2O)[C@](C)(O)C[C@@H](C)CN(C(=O)CCCCC[P+](c2cc(C)cc(C)c2)(c2cc(C)cc(C)c2)c2cc(C)cc(C)c2)[C@H](C)[C@@H](O)[C@]1(C)O` [Example 1, {6-[(2R,3S,4R,5R,8R,10R,11R,12S,13S,14R)-11-{[(2S,3R,4S,6R)-4-(dimethylamino)-3-hydroxy-6-methyloxan-2-yl]oxy}-2-ethyl-3,4,10-trihydroxy-13-{[(2R,4R,5S,6S)-5-hydroxy-4-methoxy-4,6-dimethyloxan-2-yl]oxy}-3,5,8,10,12,14-hexamethyl-15-oxo-1-oxa-6-azacyclopentadecan-6-yl]-6-oxohexyl}tris(3,5-dimethylphenyl)phosphoniumhexafluorophosphate(V)] stands 4.8%; under `CC[C@H]1OC(=O)[C@H](C)[C@@H](O[C@H]2C[C@@](C)(OC)[C@@H](O)[C@H](C)O2)[C@H](C)[C@@H](O[C@@H]2O[C@H](C)C[C@H](N(C)C)[C@H]2O)[C@](C)(O)C[C@@H](C)CN(C(=O)CCCCC[P+](c2ccccc2)(c2ccccc2)c2cccc(S(=O)(=O)O)c2)[C@H](C)[C@@H](O)[C@]1(C)O.F[P-](F)(F)(F)(F)F` [Example 2, {6-[(2R,3S,4R,5R,8R,10R,11R,12S,13S,14R)-11-{[(2S,3R,4S,6R)-4-(dimethylamino)-3-hydroxy-6-methyloxan-2-yl]oxy}-2-ethyl-3,4,10-trihydroxy-13-{[(2R,4R,5S,6S)-5-hydroxy-4-methoxy-4,6-dimethyloxan-2-yl]oxy}-3,5,8,10,12,14-hexamethyl-15-oxo-1-oxa-6-azacyclopentadecan-6-yl]-6-oxohexyl}diphenyl(3-sulfophenyl)phosphoniumhexafluorophosphate(V)], 131.8%.
Same read-out and setting: as for `CC[C@H]1OC(=O)[C@H](C)[C@@H](O[C@H]2C[C@@](C)(OC)[C@@H](O)[C@H](C)O2)[C@H](C)[C@@H](O[C@@H]2O[C@H](C)C[C@H](N(C)C)[C@H]2O)[C@](C)(O)C[C@@H](C)CN(C(=O)CCCCCCC[P+](c2ccc(F)cc2)(c2ccc(F)cc2)c2ccc(F)cc2)[C@H](C)[C@@H](O)[C@]1(C)O` [Example 3, {8-[(2R,3S,4R,5R,8R,10R,11R,12S,13S,14R)-11-{[(2S,3R,4S,6R)-4-(dimethylamino)-3-hydroxy-6-methyloxan-2-yl]oxy}-2-ethyl-3,4,10-trihydroxy-13-{[(2R,4R,5S,6S)-5-hydroxy-4-methoxy-4,6-dimethyloxan-2-yl]oxy}-3,5,8,10,12,14-hexamethyl-15-oxo-1-oxa-6-azacyclopentadecan-6-yl]-8-oxooctyl}tris(4-fluorophenyl)phosphonium hexafluorophosphate(V)], the figure is 97.7%; as for `CC[C@H]1OC(=O)[C@H](C)[C@@H](O[C@H]2C[C@@](C)(OC)[C@@H](O)[C@H](C)O2)[C@H](C)[C@@H](O[C@@H]2O[C@H](C)C[C@H](N(C)C)[C@H]2O)[C@](C)(O)C[C@@H](C)CN(C(=O)CCCCCCC[P+](c2ccc(OC)cc2)(c2ccc(OC)cc2)c2ccc(OC)cc2)[C@H](C)[C@@H](O)[C@]1(C)O.F[P-](F)(F)(F)(F)F` [Example 5, {8-[(2R,3S,4R,5R,8R,10R,11R,12S,13S,14R)-11-{[(2S,3R,4S,6R)-4-(dimethylamino)-3-hydroxy-6-methyloxan-2-yl]oxy}-2-ethyl-3,4,10-trihydroxy-13-{[(2R,4R,5S,6S)-5-hydroxy-4-methoxy-4,6-dimethyloxan-2-yl]oxy}-3,5,8,10,12,14-hexamethyl-15-oxo-1-oxa-6-azacyclopentadecan-6-yl]-8-oxooctyl}tris(4-methoxyphenyl)phosphoniumhexafluorophosphate(V)], 7.8%.

The assay is the same for the next values; noted with them: compound at 100 uM; MDA-231 cells; IncuCyte images every 3 h over 4-5 d; relative confluence normalised to time zero.
As for `CC[C@H]1OC(=O)[C@H](C)[C@@H](O[C@H]2C[C@@](C)(OC)[C@@H](O)[C@H](C)O2)[C@H](C)[C@@H](O[C@@H]2O[C@H](C)C[C@H](N(C)C)[C@H]2O)[C@](C)(O)C[C@@H](C)CN(C)[C@H](C)[C@@H](O)[C@]1(C)O` [Azithromycin], the “% Confluence” value amounted to 17%.

(Values after patent US11427606B2, “Azithromycin derivatives containing a phosphonium ion as anticancer agents” (Rising Tide Foundation, priority 2017, dated 2022).)
